From article PMC8954547, “Nonpeptidic Z360-Analogs Tagged with Trivalent Radiometals as Anti-CCK2R Cancer Theranostic Agents: A Preclinical Study” (Pharmaceutics, 2022)

Experiments:
[1] = Radioligand stability in mice (radio-HPLC of blood and urine); format: in vivo; conditions: mean ± SD
Description: The formation of radiometabolites which can be detected in the blood was tested in blood samples collected 5 min post-injection (pi) of each of the radioligands [^67Ga]Ga/[^111In]In/[^177Lu]Lu-GAS1/3 and [^67Ga]Ga/[^111In]In-GAS2. For this study, in-house male Swiss albino mice (body weight: 30 ± 5 g, provided by the NCSR “Demokritos” Animal House) were used in groups of three. The animals received, through the tail vein, a 100-μL bolus containing each radioligand tested (2.5–3 nmol of the total conjugate in vehicle: saline/EtOH 9/1 v/v, corresponding to: up to 11 MBq for In-111, up to 13 MBq for Ga-67 and up to 74 MBq for Lu-177). Mice were euthanized, and blood was collected directly from the heart using a prechilled penicillin syringe and transferred in a prechilled EDTA-containing Eppendorf Protein LoBind® tube on ice (40 µL, 50 mM Na2EDTA solution). After centrifugation (10 min, 2000× g/4 °C, in a Hettich, Universal 320R, centrifuge), the blood plasma was collected, mixed with chilled MeCN in a 1/1 v/v ratio and centrifuged again (10 min, 15,000× g/4 °C). Supernatants were collected and concentrated to a small volume (≈50–100 μL) under a gentle N2-flux at 40 °C. They were then diluted with physiological saline (≈400 μL) and filtered through a Millex GV filter (0.22 μm, 13 mm Ø, Millipore, Milford, CT, USA). Aliquots of the filtrate were analyzed by radio-RP-HPLC using a Waters Symmetry Shield RP18 cartridge column (5 μm, 3.9 mm × 20 mm) eluted at a flow rate of 1.0 mL/min with the following gradient: 100% A/0% B to 55% A/45% B in 45 min; A = 0.1% aqueous TFA (v/v) and B = MeCN (system 2). The elution time (tR) of each parent radioligand was determined by coinjection of blood samples with an aliquot of the labeling solution on the HPLC column. Results were calculated as the average percentage of intact radioligand ± SD derived from three independent experiments.
Following the same injection protocol, radioligands were administered in additional groups of mice, but this time animals were euthanized 30 min pi. The urine was immediately collected from the bladder using a prechilled syringe and transferred as before in a prechilled EDTA-containing Eppendorf Protein LoBind® centrifuge tube on ice (40 µL, 50 mM Na2EDTA solution) and 0.1 mL of physiological saline. Urine proteins were precipitated by adding chilled MeCN in a 1/1 v/v ratio followed by a 10 min centrifugation step (15,000× g/4 °C). The supernatant was then collected and treated following the blood sample workup procedure. Aliquots of the Millex-GV filtrate (containing >90% of total urine activity) were analyzed by radio-HPLC, adopting the aforementioned conditions. Results were calculated as the average percentage of intact radioligand ± SD derived from three independent experiments.

[2] = system: SCID mice bearing twin HEK293-CCK2i4svR and wtHEK293 tumors; test: Biodistribution in SCID mice bearing twin HEK293-CCK2i4svR and wtHEK293 xenografts; format: in vivo
How it was run: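 Uptake is expressed as %IA/g (mean ± SD, n = 4) from gamma counting of blood, organs and tumours collected at set times: 1, 4 and 24 h pi for ^67Ga, 4 and 24 h for ^111In (±gelofusine), 4–96 h for ^177Lu. Radioligands were given iv at 7–40 pmol to SCID mice bearing twin CCK2i4svR-transfected and wild-type HEK293 xenografts.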

[3] = system: HEK293-CCK2i4svR and wtHEK293 xenografts; test: SPECT/CT of HEK293-CCK2i4svR and wtHEK293 xenografts; format: in vivo, mice; conditions: 4 h and 24 h pi
Description: For SPECT/CT imaging, six mice bearing twin HEK293-CCK2i4svR and wtHEK293 tumors were injected in the tail vein with a bolus containing [^111In]In-GAS1/2/3 (100 μL, 9–12 MBq associated with 3 nmol total injected analog in-vehicle: saline/EtOH 9/1 v/v). Mice were euthanized at 4 h and 24 h pi. Tomographic SPECT/CT imaging was performed with the y-CUBE/x-CUBE systems (Molecubes, Belgium). The SPECT system is based on monolithic NaI detectors attached to SiPMs, with a 0.6 mm intrinsic resolution. The CT system is based on a structured CMOS detector of CsI with pixels of 75 µm and operates between 35–80 kVp, 10–500 µA tube current, with a 33 µm fixed focal spot size. SPECT scans were acquired 4 h pi and 24 h pi, with a 40–50 min duration protocol based on the injected activity, and each SPECT scan was succeeded by a CT scan, following General-Purpose protocol under 50 kVp, for co-registration purposes. SPECT images were reconstructed using the MLEM reconstruction method with a 250 µm voxel size and 500 iterations. CT images were reconstructed using the ISRA reconstruction method with a 100 µm voxel size.
Images were exported and post-processed on VivoQuant software, version 4.0 (Invicro, Boston). A smoothing median filter (0.6 mm, spherical window) was applied to the images, and the bladder was removed for consistency purposes. Normalization of images was performed (i.e., all images having the same color scale range values) to achieve a direct visual comparison between the different groups.

[4] = 4 h + Gelo (Gelofusine-treated mice)
[5] = 24 h + Gelo (Gelofusine-treated mice)

Intact radioligand in blood ([1]; mice blood collected 5 min pi): 84.6 ± 2.4 (3) % | Intact radioligand in urine ([1]; mice urine collected 30 min pi): 85.2 ± 5.2 (3) % | Biodistribution, Blood [2, 4]: 2.75 ± 0.48 %IA/g | Biodistribution, CCK2i4svR(+) Tumor [2, 4]: 19.17 ± 2.06 %IA/g | Biodistribution, CCK2i4svR(-) Tumor [2, 4]: 0.86 ± 0.15 %IA/g | Biodistribution, Femur [2, 4]: 0.65 ± 0.15 %IA/g | Biodistribution, Heart [2, 4]: 0.92 ± 0.16 %IA/g | Biodistribution, Intestines [2, 4]: 1.87 ± 0.08 %IA/g | Biodistribution, Kidneys [2, 4]: 5.93 ± 0.56 %IA/g | Biodistribution, Liver [2, 4]: 6.34 ± 0.86 %IA/g | Biodistribution, Muscle [2, 4]: 0.28 ± 0.06 %IA/g | Biodistribution, Pancreas [2, 4]: 1.47 ± 0.26 %IA/g | Biodistribution, Spleen [2, 4]: 1.13 ± 0.28 %IA/g | Biodistribution, Stomach [2, 4]: 0.77 ± 0.14 %IA/g | Biodistribution, Blood ([2]; 4 h pi): 3.51 ± 0.56 %IA/g | Biodistribution, CCK2i4svR(+) Tumor ([2]; 4 h pi): 17.79 ± 1.73 %IA/g | Biodistribution, CCK2i4svR(-) Tumor ([2]; 4 h pi): 0.73 ± 0.05 %IA/g | Biodistribution, Femur ([2]; 4 h pi): 0.77 ± 0.13 %IA/g | Biodistribution, Heart ([2]; 4 h pi): 1.10 ± 0.19 %IA/g | Biodistribution, Intestines ([2]; 4 h pi): 3.37 ± 0.89 %IA/g | Biodistribution, Kidneys ([2]; 4 h pi): 6.06 ± 1.24 %IA/g | Biodistribution, Liver ([2]; 4 h pi): 7.69 ± 1.00 %IA/g | Biodistribution, Lungs ([2]; 4 h pi): 2.23 ± 0.39 %IA/g | Biodistribution, Muscle ([2]; 4 h pi): 0.26 ± 0.04 %IA/g | Biodistribution, Pancreas ([2]; 4 h pi): 1.49 ± 0.19 %IA/g | Biodistribution, Spleen ([2]; 4 h pi): 1.56 ± 0.22 %IA/g | Biodistribution, Stomach ([2]; 4 h pi): 0.98 ± 0.21 %IA/g | Biodistribution, Blood [2, 5]: 0.07 ± 0.01 %IA/g | Biodistribution, CCK2i4svR(+) Tumor [2, 5]: 4.51 ± 0.55 %IA/g | Biodistribution, CCK2i4svR(-) Tumor [2, 5]: 0.23 ± 0.04 %IA/g | Biodistribution, Femur [2, 5]: 0.16 ± 0.01 %IA/g | Biodistribution, Heart [2, 5]: 0.15 ± 0.02 %IA/g | Biodistribution, Intestines [2, 5]: 0.49 ± 0.13 %IA/g | Biodistribution, Kidneys [2, 5]: 1.69 ± 0.13 %IA/g | Biodistribution, Liver [2, 5]: 1.30 ± 0.15 %IA/g | Biodistribution, Lungs [2, 5]: 0.39 ± 0.03 %IA/g | Biodistribution, Muscle [2, 5]: 0.06± 0.01 %IA/g | Biodistribution, Pancreas [2, 5]: 0.14 ± 0.01 %IA/g | Biodistribution, Spleen [2, 5]: 0.48 ± 0.08 %IA/g | Biodistribution, Stomach [2, 5]: 0.25 ± 0.04 %IA/g | Biodistribution, Blood ([2]; 24 h pi): 0.08 ± 0.01 %IA/g | Biodistribution, CCK2i4svR(+) Tumor ([2]; 24 h pi): 5.40 ± 1.13 %IA/g | Biodistribution, CCK2i4svR(-) Tumor ([2]; 24 h pi): 0.27 ± 0.10 %IA/g | Biodistribution, Femur ([2]; 24 h pi): 0.16 ± 0.03 %IA/g | Biodistribution, Heart ([2]; 24 h pi): 0.15 ± 0.03 %IA/g | Biodistribution, Intestines ([2]; 24 h pi): 0.59 ± 0.11 %IA/g | Biodistribution, Kidneys ([2]; 24 h pi): 1.84 ± 0.38 %IA/g | Biodistribution, Liver ([2]; 24 h pi): 2.27 ± 0.30 %IA/g | Biodistribution, Lungs ([2]; 24 h pi): 0.36 ± 0.05 %IA/g | Biodistribution, Muscle ([2]; 24 h pi): 0.06± 0.00 %IA/g | Biodistribution, Pancreas ([2]; 24 h pi): 0.18 ± 0.03 %IA/g | Biodistribution, Spleen ([2]; 24 h pi): 0.64 ± 0.12 %IA/g | Biodistribution, Stomach ([2]; 24 h pi): 0.21 ± 0.05 %IA/g | SPECT/CT uptake in CCK2i4svR expressing tumors [3]: Intense uptake | SPECT/CT uptake in wtHEK293 tumors devoid of CCK2i4svR expression [3]: no uptake is evident
SMILES: CC(C)(C)C(=O)CN1C(=O)[C@H](NC(=O)Nc2cccc(C(=O)NCCOCCOCCOCCNC(=O)[C@H](CCC(=O)O)NC(=O)CN3CCN(CC(=O)[O-])CCN(CC(=O)[O-])CCN(CC(=O)[O-])CC3)c2)CN(C2CCCCC2)c2ccccc21.[111In+3] (stereo in doubt) [[^111In]In-GAS1]
